Measured values published in article PMC2746095 (Biochemistry, 2009).
Where a chain is given by its changes, count along the chain named.

Tests used:
[1] = target: T1, R. etli pyruvate carboxylase (RePC) (Rhizobium etli, UniProt Q2K340, T882A); assay: bicarbonate-dependent ATPase, coupled Pi assay, partial inhibition fit; format: biochemical
T1 sequence (Q2K340 1-1154 T882A): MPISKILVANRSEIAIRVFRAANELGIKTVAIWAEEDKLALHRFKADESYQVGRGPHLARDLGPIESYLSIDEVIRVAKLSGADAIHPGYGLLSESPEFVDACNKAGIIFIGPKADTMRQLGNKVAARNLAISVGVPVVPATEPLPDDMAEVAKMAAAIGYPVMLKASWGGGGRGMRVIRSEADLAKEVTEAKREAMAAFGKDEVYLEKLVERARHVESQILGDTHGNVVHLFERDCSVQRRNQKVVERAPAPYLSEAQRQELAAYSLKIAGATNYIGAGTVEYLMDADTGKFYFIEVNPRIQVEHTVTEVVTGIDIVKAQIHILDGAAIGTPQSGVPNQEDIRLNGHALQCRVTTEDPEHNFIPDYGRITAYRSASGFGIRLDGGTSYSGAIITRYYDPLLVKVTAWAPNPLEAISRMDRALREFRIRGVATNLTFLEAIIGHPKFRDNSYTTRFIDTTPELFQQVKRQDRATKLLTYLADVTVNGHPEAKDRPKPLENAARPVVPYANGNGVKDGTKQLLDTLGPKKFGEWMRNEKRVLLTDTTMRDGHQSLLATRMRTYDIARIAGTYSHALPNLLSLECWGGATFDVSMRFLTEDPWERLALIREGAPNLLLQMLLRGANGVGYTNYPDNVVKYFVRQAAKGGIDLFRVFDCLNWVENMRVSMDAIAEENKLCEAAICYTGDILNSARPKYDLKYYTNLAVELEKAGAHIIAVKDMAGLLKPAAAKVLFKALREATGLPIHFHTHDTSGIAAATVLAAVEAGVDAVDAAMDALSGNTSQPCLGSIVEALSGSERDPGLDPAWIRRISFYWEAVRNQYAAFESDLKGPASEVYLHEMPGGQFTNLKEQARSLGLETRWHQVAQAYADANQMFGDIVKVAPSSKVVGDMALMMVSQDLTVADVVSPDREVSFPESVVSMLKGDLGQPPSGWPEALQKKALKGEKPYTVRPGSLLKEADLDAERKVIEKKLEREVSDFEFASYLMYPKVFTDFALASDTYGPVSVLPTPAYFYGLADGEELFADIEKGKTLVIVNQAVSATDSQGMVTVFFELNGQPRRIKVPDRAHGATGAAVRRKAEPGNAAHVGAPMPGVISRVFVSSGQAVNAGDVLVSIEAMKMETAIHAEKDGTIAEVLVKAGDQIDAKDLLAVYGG

[2] = target: T2, R. etli pyruvate carboxylase (RePC) (Rhizobium etli, UniProt Q2K340); assay: bicarbonate-dependent ATPase, coupled Pi assay, fit to substrate inhibition; format: biochemical; details: 0-20 mM pyruvate, text prints 10.2 ± 0.1 mM, 100 mM Tricine pH 7.5, 25 °C, 10 mM HCO3-, 2.5 mM MgATP, 2.5 mM MgCl2, 0.25 mM acetyl-CoA
T2 sequence (Q2K340 1-1154): T1 sequence (Q2K340 1-1154 T882A) with A882T

SMILES	Ki [1]	Ki [2]
NC(=O)C(=O)O [oxamate]	1000 ± 200 µM	
CC(=O)C(=O)O [pyruvate]	800 ± 100 µM	10000 ± 1000 µM
